These results are taken from publication PMC6107105, “Update on drug development targeting parasite cysteine proteases” (PLoS Neglected Tropical Diseases, 2018).

Molecules are shown by their SMILES.

On the set-up of data set [1]: species or system NHPs. The note with it: in vivo, 200 mg/kg.
In another data set the test system is cynomolgus monkeys. Put plainly: Pilot multiple dose safety/pharmacokinetic 7-day non-GLP study in cynomolgus monkeys (SRI study M158-01). The class given is in vivo. The note with it: 200 mg/Kg once daily for 7 days.
Data set [2] has as its system Sprague-Dawley rats. Put plainly: Acute intravenous non-GLP toxicity study in rats (SRI study M001-98). The class given is in vivo. As to conditions: male and female Sprague-Dawley rats.
A further data set deals with dogs. Briefly: 7-day non-GLP toxicity study in dogs (SRI study M138-00). As to conditions: orally as solid in gelatin capsules, 100 mg/kg daily for 7 days, 2 dogs. In kind it is in vivo.
Data set [3] concerns Sprague-Dawley rats. Put plainly: 14-day GLP toxicity study in Sprague-Dawley rats (SRI study M602-08). The class given is in vivo.
For the next data set, the system named is rats. Put plainly: 7-Day non-GLP Toxicity Study in Rats (SRI study M587-08). The class given is in vivo. As to conditions: 50 or 150 mg/Kg/day for 7 days.

Take `CN1CCN(C(=O)N[C@@H](Cc2ccccc2)C(=O)N[C@H](/C=C/S(=O)(=O)c2ccccc2)CCc2ccccc2)CC1.Cl` [K777 HCl]: in data set [1], the AUC – broadly, the area under the concentration-time curve, a measure of exposure – is 32500 ng·h/mL; the Cmax (commonly the highest concentration seen after dosing) turned out to be 4500 ng/mL; the Tmax (commonly the time at which the peak concentration occurs) is 4 h; the half-life (in general, the time needed for the level to fall by half in the phase considered) is about 4 h. The mortality or morbidity result in the data set on cynomolgus monkeys is on record as “No mortality or morbidity was observed following the administration of K777 HCl at 200 mg/Kg once daily for 7 days”. Besides, the “dose producing mortality and adverse clinical signs” value in the data set on Sprague-Dawley rats [2] is “K777 HCl administered IV to male and female Sprague-Dawley rats produced mortality and adverse clinical signs at 150 mg/Kg and higher”. Moreover, the mortality or morbidity result in the data set on dogs was “K777 HCl was administered orally as a solid in gelatin capsules to 2 dogs (1 male and 1 female) at 100 mg/kg daily for 7 days. No mortality or morbidity was observed in this study”. Also, in the data set with Sprague-Dawley rats [3] (14-day, any dose level, SRI study M602-08), the “mortality or treatment-related adverse clinical signs” value is reported as “No mortality or treatment-related adverse clinical signs were observed following the administration of K777 HCl at any dose level”. In addition, in the data set with Sprague-Dawley rats [3] (rat, in vivo), the “changes in clinical chemistry parameters (total protein, potassium, phosphorus, creatinine increases; blood urea nitrogen decrease)” value is reported as “not considered biologically significant”; the “effects on hematology, urinalysis, or ophthalmology parameters” value is listed as “no treatment-related adverse effects”; the histopathology result was “No treatment-related histopathological abnormalities”. In the data set on rats (male and female rats, SRI study M587-08), the tolerability entry is “well tolerated”. Further, in the data set with rats (rats), the “liver effects at the doses employed” value was “mild and transient”; the “target organ of toxicity” value is reported as “liver”.
